Measurements published in ChEMBL document CHEMBL1201862, “PubChem BioAssay data set” (2004).
Activity calls are given as the source filed them.

Experiments:
[1] = Luminescence Cell-Based Dose Confirmation HTS to Identify Inhibitors of Platelet Dense Granule Release. [Related pubchem assays: 1663 (Primary HTS), 1678 (Summary of Project)]; format: functional
[2] = biological target: Luciferin 4-monooxygenase (Photinus pyralis, UniProt P08659); experiment: inhibition of purified Photinus pyralis luciferase – biochemical, luminescence, dose response (AID 1891)
Chain of Luciferin 4-monooxygenase (P08659 whole entry): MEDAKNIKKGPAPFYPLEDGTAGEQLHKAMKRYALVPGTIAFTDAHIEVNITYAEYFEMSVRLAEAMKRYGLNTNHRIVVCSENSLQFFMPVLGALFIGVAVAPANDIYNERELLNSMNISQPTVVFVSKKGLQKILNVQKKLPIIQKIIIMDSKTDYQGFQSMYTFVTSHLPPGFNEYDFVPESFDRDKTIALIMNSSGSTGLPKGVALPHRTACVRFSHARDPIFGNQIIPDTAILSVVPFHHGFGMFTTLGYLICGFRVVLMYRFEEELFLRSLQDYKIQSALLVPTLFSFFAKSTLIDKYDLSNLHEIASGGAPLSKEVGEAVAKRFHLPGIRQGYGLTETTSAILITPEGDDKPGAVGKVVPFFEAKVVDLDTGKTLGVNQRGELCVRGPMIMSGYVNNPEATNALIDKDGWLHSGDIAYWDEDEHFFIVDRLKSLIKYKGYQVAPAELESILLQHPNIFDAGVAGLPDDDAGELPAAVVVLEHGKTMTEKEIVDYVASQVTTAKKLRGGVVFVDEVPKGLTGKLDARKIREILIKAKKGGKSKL

Cytochrome P450 2C19 = Cytochrome P450 2C19 (Homo sapiens, UniProt P33261); experiment: Cytochrome panel assay with activity outcomes. Panel member name: p450-cyp2c19 Compounds with AC50 equal or less than 10 uM are considered active; format: functional; settings: read-out: AC50
Chain of Cytochrome P450 2C19 (P33261 whole entry): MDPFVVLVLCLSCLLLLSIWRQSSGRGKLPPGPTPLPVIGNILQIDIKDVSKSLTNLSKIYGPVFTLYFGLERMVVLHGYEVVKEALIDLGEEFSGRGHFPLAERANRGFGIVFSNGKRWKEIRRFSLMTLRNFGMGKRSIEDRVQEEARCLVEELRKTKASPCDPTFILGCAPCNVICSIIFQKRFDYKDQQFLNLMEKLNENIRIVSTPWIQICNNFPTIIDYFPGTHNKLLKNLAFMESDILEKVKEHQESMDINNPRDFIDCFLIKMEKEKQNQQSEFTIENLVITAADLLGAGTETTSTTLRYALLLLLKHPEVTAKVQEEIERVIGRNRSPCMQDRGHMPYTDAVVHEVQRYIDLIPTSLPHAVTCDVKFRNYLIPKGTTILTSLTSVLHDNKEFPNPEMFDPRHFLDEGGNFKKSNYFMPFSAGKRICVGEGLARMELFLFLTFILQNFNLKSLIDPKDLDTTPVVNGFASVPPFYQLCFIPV

Protein RecA = biological target: T1, Protein RecA (Mycobacterium tuberculosis, UniProt P9WHJ3); experiment: Fluorescence Cell-Free Homogeneous Dose Retest to Identify Inhibitors of RecA-Intein Splicing Activity. [Related pubchem assays (depositor defined):AID2097, AID2223, AID489010, AID492950]; format: functional
T1 sequence (P9WHJ3 whole entry): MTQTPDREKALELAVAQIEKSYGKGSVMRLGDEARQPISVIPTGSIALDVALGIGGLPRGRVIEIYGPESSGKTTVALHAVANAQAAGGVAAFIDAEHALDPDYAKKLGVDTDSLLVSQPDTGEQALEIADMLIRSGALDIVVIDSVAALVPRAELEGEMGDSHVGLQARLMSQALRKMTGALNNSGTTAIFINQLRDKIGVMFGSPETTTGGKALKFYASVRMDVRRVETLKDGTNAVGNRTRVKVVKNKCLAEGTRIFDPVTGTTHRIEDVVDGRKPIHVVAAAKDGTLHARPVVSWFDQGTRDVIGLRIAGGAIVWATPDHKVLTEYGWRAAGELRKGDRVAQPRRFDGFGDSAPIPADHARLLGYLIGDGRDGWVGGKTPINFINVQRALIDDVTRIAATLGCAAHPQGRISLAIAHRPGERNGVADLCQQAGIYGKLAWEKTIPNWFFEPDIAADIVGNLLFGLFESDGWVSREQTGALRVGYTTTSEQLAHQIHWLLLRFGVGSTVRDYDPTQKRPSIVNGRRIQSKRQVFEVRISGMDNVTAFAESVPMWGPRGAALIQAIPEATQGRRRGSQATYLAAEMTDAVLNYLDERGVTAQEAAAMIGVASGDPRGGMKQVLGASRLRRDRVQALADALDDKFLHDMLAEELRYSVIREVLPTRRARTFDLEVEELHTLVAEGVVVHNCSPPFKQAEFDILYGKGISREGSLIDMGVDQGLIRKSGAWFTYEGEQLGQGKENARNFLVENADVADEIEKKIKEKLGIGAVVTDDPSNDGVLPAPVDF

[3] = biological target: T2, Replicative DNA helicase DnaB (Mycobacterium tuberculosis, UniProt P9WMR3); experiment: DnaB intein splicing inhibitors, dose response, biochemical, cell-free fluorescence (AID 449749); format: functional
T2 sequence (P9WMR3 whole entry): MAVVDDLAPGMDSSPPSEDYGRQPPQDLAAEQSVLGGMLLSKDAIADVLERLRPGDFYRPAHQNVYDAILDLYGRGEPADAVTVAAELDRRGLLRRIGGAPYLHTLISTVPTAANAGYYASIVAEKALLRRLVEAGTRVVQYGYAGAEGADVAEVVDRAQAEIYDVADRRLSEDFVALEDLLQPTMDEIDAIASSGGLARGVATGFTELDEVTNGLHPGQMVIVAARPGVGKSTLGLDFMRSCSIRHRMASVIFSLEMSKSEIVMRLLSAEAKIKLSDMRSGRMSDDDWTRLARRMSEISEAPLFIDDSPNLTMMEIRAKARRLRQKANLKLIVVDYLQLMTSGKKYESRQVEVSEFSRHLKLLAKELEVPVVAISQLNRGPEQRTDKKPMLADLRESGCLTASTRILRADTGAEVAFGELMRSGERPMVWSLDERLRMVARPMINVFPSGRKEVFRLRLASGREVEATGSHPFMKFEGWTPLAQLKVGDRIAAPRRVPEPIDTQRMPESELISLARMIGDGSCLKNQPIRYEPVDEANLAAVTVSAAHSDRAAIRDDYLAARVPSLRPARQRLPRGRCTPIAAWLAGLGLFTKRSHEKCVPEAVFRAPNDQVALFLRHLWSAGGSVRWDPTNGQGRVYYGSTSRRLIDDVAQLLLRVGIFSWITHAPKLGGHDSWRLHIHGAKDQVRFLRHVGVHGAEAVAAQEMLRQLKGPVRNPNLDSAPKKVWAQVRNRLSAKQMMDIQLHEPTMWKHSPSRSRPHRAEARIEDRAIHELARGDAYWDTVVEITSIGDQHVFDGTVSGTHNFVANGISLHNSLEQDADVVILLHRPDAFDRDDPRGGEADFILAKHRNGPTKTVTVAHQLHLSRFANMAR

[4] = Trypanosoma cruzi growth suppression in host cells – NIH3T3 host cells, beta-gal luminescence, confirmation (AID 2044); format: functional, cell-based;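 further: intracellular parasites grown in NIH/3T3 mouse fibroblasts as host cells; luminescent beta-galactosidase reporter signal from transgenic T. cruzi replicating inside host cells; inhibitors lower the luminescence signal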
[5] = Luminescence Cell-Based Dose Retest to Confirm Inhibitors of Cancer Stem Cells. [Related pubchem assays (depositor defined):AID2717, AID2721]; format: functional; settings: Homo sapiens
[6] = NIH3T3 cell viability loss – ATP luminescence, mouse fibroblasts, counter-screen, dose response (AID 2010); format: functional, cell-based;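 further: cells exposed to compound for about 90 hours before reading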
Cytochrome P450 2C9 = Cytochrome P450 2C9 (Homo sapiens, UniProt P11712)
Chain of Cytochrome P450 2C9 (P11712 whole entry): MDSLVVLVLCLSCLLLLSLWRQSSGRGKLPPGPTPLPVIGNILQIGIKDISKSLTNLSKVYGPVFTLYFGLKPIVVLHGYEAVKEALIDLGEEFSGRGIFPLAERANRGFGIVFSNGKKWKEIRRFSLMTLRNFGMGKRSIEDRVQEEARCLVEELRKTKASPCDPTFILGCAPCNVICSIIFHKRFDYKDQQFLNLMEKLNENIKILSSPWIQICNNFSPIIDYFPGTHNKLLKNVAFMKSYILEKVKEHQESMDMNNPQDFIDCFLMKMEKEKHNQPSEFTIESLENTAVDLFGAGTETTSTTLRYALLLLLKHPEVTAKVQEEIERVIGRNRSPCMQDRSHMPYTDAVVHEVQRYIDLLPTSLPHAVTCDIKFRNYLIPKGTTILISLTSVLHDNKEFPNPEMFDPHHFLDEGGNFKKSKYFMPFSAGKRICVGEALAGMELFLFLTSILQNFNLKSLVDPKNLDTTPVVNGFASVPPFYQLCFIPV

Cytochrome P450 3A4 = Cytochrome P450 3A4 (Homo sapiens, UniProt P08684);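 further: CYP3A4 tested as one member of a cytochrome P450 panel screen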
Chain of Cytochrome P450 3A4 (P08684 whole entry): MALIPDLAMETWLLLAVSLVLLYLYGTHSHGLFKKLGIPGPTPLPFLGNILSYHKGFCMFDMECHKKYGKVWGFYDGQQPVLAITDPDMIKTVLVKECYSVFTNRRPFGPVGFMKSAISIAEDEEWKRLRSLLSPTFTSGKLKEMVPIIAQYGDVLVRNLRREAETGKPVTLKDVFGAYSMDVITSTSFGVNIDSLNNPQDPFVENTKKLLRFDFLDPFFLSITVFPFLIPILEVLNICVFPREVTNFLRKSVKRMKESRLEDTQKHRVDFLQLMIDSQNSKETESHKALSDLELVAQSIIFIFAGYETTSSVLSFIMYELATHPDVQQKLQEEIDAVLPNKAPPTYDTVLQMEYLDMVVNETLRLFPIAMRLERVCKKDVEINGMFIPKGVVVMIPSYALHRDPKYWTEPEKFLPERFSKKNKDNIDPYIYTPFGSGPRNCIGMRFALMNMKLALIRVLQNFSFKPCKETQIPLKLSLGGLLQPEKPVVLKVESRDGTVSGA

[7] = viability of uninfected HEp-2 cells – cell-based, HTS, cytotoxicity control for RSV inhibitor project, dose response (AID 2410); format: functional; settings: human respiratory syncytial virus

Nc1cc(-c2ccccc2)nn1Cc1ccc(Cl)cc1
EC50 [1]: > 112 µM (not active)
EC50 [2]: > 112 µM (not active)

CCOC(=O)c1cn(-c2nc(-c3ccc(Cl)cc3)cs2)c2c(F)c(N3CC(C)OC(C)C3)c(F)cc2c1=O (stereo not drawn)
AC50 (Cytochrome P450 2C19): 17.8 µM (inconclusive)

O=C(Oc1ccc(N(C(=O)c2ccncc2)S(=O)(=O)c2ccc(Cl)cc2)cc1)c1ccncc1
EC50 (Protein RecA): 16.4 µM (active)
AC50 [3]: 9.26 µM (active)

COCCSc1ccccc1C(=O)Nc1ccc2c(c1)OCO2
EC50 [1]: > 112 µM (not active)
EC50 [2]: > 112 µM (not active)

COCCN(C(=O)COC(=O)CCc1nc2ccccc2s1)c1c(N)n(Cc2ccccc2)c(=O)[nH]c1=O
EC50 [1]: > 112 µM (not active)
EC50 [2]: > 112 µM (not active)

COc1nc(C(=N)NO)nc(N2CCCCC2)n1
AC50 (Cytochrome P450 2C19): 39.8 µM (inconclusive)

CC(C)C(=O)Nc1ccc(NC(=S)NC(=O)c2ccccc2F)cc1
EC50 [1]: > 112 µM (not active)
EC50 [2]: > 112 µM (not active)

COC(=O)c1ccccc1Oc1cc(C(F)(F)F)nc(-c2ccccn2)n1
EC50 [1]: > 112 µM (not active)
EC50 [2]: > 112 µM (not active)

Cc1cc(C)n(C(=O)c2cccc(S(=O)(=O)N3CCCCC3)c2)n1
EC50 [1]: > 112 µM (not active)
EC50 [2]: > 112 µM (not active)

CCOC(=O)c1c(NC(=O)CSc2nc3cc(C)ccc3[nH]2)sc2c1CC(C)(C)NC2(C)C
EC50 [4]: 0.855 µM (active)
AC50 [5]: 7.46 µM (active)
EC50 [6]: 18.6 µM (active)

O=c1nc(-c2ccccc2)n(-c2ccccc2)c2ncccc12
AC50 (Cytochrome P450 2C19): 22.4 µM (inconclusive)

CCn1c(S)nnc1-c1ccoc1C
AC50 (Cytochrome P450 2C19): 28.2 µM (inconclusive)
AC50 (Cytochrome P450 2C9): 31.6 µM (inconclusive)

Cc1nc2cnc(Oc3ccccc3)nc2n(-c2ccccc2)c1=O
AC50 (Cytochrome P450 3A4): 25.1 µM (inconclusive)
AC50 (Cytochrome P450 2C9): 25.1 µM (inconclusive)

CCOC(=O)CN1C(=O)C(O)=C(C(C)=O)C1c1ccc(F)cc1 (stereo not drawn)
EC50 [1]: > 112 µM (not active)
EC50 [2]: > 112 µM (not active)

COC(=O)[C@@]1(Cc2ccc(OC)cc2)[C@@H]2C(=CC(=O)[C@H]2CC(=O)C(=O)N(C)C)CN1C(=O)c1ccccc1
AC50 (Cytochrome P450 3A4): 2.51 µM (inconclusive)
AC50 (Cytochrome P450 2C9): 25.1 µM (inconclusive)

COc1ccc(-c2[nH]nc3c2C(c2ccncc2)C(C#N)=C(N)O3)cc1 (stereo not drawn)
EC50 (Protein RecA): 2.26 µM (active)
AC50 [3]: 8.02 µM (active)

FC(F)(F)c1nnc(-c2ccccc2)nc1Oc1ccc(Cl)cc1Cl
EC50 (Protein RecA): 0.481 µM (active)
CC50 [7]: 31.4 µM (active)
AC50 [3]: 1.44 µM (active)

Sc1nnc(-c2ccncc2)n1CC1CCCO1 (stereo not drawn)
AC50 (Cytochrome P450 3A4): 22.4 µM (inconclusive)
AC50 (Cytochrome P450 2C19): 31.6 µM (inconclusive)
AC50 (Cytochrome P450 2C9): 28.2 µM (inconclusive)

Cc1ccc(C2CCN(C(=O)Nc3ccccc3)C2)cc1 (stereo not drawn)
EC50 [1]: > 112 µM (not active)
EC50 [2]: > 112 µM (not active)
